The values below come from patent US20260234165A1, “MACROCYCLIC COMPOUNDS, PREPARATION METHOD THEREFOR, AND USE THEREOF” (GENFLEET THERAPEUTICS (SHANGHAI) INC., priority 2004, published 2026).

For series [1], the system named is p-ERK in NCI-H441 cells (KRAS G12V mutation). Description: Cell p-ERK assay (HTRF) in NCI-H441 cells. The series is classed as cell-based, human. Particulars: NCI-H441 cells, 3 h compound incubation, HTRF p-ERK T202/Y204, read-out: H441 p-ERK IC50. In outline: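 Cells are plated (AsPC-1 at 10000, NCI-H441 at 20000 per well) and cultured overnight. Next day compound is added in a 3.16-fold dilution series with 0.1% DMSO and left 3 h. After lysis, p-ERK antibodies incubate 4 h before HTRF reading and four-parameter IC50 fitting.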

The nature of series [2]: Pharmacokinetic study in rats. Particulars: male SD rats; for clearance / CL: IV; for AUC / Cmax: PO (intragastric), dose 10 mg/kg. The series is classed as in vivo, Sprague-Dawley (SD) rats. From the text:
A total of 6 healthy adult male Sprague-Dawley (SD) rats were provided by Zhejiang Vital River Laboratory Animal Technology Co., Ltd. For each test compound, 6 healthy adult male SD rats were selected and randomly divided into 2 groups: an intravenous administration (IV) group and an intragastric administration (PO) group. The LC-MS/MS method was used to determine the drug concentrations in the plasma of rats at different time points after intravenous and intragastric administration of the test compounds. This experiment was intended to investigate the pharmacokinetic performance of the test compounds in rats and to evaluate the pharmacokinetic characteristics. Each drug used in the experiment was prepared from the test compound powder: An appropriate amount of test compound powder was weighed out, and appropriate amounts of DMSO, a 10% aqueous Solutol HS 15 solution, and a 6% aqueous HP-β-CD solution were sequentially added according to a volume ratio of 5:10:85. The mixture was vortexed and sonicated until clarification. The final concentration of the drug in the IV group was 0.5 mg/mL, and the final concentration of the drug in the PO group was 1 mg/mL; the concentrations could be adjusted according to actual needs. For the drug in the PO group of Z504, an appropriate amount of test compound powder was weighed out, and an appropriate amount of 0.5% MC+0.2% Tween 80 aqueous solution was added. The mixture was well mixed by vortexing to give a 1 mg/mL homogeneous suspension: the concentration could be adjusted according to actual needs.
All experimental rats were fasted overnight, and food intake was resumed 4 h after administration. For the rats in the IV group, the administration volume was set at 2 mL/kg, with Z554 and Z915 administered at a dose of 0.5 mg/kg and the other compounds at a dose of 1 mg/kg. For the rats in the PO group, the administration volume was 10 mL/kg and the dose was 10 mg/kg. The administration amount was adjusted according to the body weight of the rats on the day of administration. In the experiment, blood samples were collected from the rats in the IV group at multiple time points (0.0833 h, 0.25 h, 0.5 h, 1 h, 2 h, 4 h, 7 h, and 24 h) after administration, while blood samples were collected from the PO group at 0.25 h, 0.5 h, 1 h, 2 h, 4 h, 7 h, and 24 h after administration, with approximately 100 μL collected each time via the orbital blood collection method.
The blood samples were placed in centrifuge tubes containing EDTA-K2 and centrifuged at 8000 rpm for 4 min within 30 min to separate the supernatant plasma. The resulting plasma samples were stored at −20° C. for later use. For sample analysis, 20 μL of each of plasma samples and calibration standards was added to a 96-well plate, and 160 μL of acetonitrile containing 100 ng/mL tolbutamide was added. The samples were vortexed for 5 min for uniform mixing, and then centrifuged at 4000 rpm for 15 min. After the centrifugation was completed, 50 μL of supernatant was added to a 96-well plate containing 150 μL of deionized water. The plate was then sealed and shaken for uniform mixing. Sample analysis was performed by LC-MS/MS.
The sampling volume could be adjusted according to actual needs, but the final concentration should be kept unchanged.

[3] abbreviates: Sprague-Dawley, rat, plasma, dose 0.5 mg/kg.
Where [4] appears, read: Sprague-Dawley, rat, plasma, read-out: AUC.
Where [5] appears, read: Sprague-Dawley, rat, plasma, read-out: Cmax.
Setting [6] is: Sprague-Dawley, rat, plasma, dose 1 mg/kg.

Like-named read-outs stand apart in the source and are kept apart here.

For orientation: IC50 means the concentration at which inhibition is half-maximal. The clearance is the rate of elimination divided by the concentration. One may read the AUC as the area under the concentration-time curve, a measure of exposure. By Cmax is commonly meant the maximum level reached in the sampled fluid or tissue.

For the molecule `CCn1c(-c2cc(C#CCN3CCC3)cnc2[C@H](C)OC)c2c3cc(ccc31)-c1csc(n1)C[C@H](NC(=O)[C@H]1[C@H](C)[C@@H]1C)C(=O)N1CCC[C@H](N1)C(=O)OCC(C)(C)C2` (single isomer, unassigned) [Compound Z554], in series [1] (Homo sapiens, NCI-H441, 3 h), the IC50 stood at 0.42 nM. Also, the clearance in series [2] (setting [3]) was 2.52 mL/min/kg. The exposure (AUC) in series [2] (setting [4]) was found to be 16600 ng·h/mL. For the same molecule, the Cmax in series [2] (setting [5]) was 2780 ng/mL.
Turning to `CO[C@@H](C)c1ncc(C#CCN2CCCOCC2)cc1-c1c2c3cc(ccc3n1CC(F)(F)F)-c1csc(n1)C[C@H](NC(=O)[C@H]1[C@H](C)[C@@H]1C)C(=O)N1CCC[C@H](N1)C(=O)OCC(C)(C)C2` (atropisomer, axis not shown; (Ra)) [Compound Z700, N-((6^3S,4S,Z)-1^1-(2,2,2-trifluoroethyl)-(Ra)-1^2-(2-((S)-1-methoxyethyl)-(5-(3-(1,4-oxazepan-4-yl)prop-1-yn-1-yl))-pyridin-3-yl)-10,10-dimethyl-5,7-dioxo-6^1,6^2,6^3,6^4,6^5,6^6-hexahydro-1^1H-8-oxa-2(4,2)-thiazola-1(5,3)-indola-6(1,3)-pyridazinacycloundecaphane-4-yl)-2,3-dimethylcyclopropane-1-carboxamide], the IC50 in series [1] worked out at 0.2 nM. Moreover, the “CL” value in series [2] (dose 1 mg/kg) was 7.66 mL/min/kg. For the same molecule, in series [2], the exposure (AUC) is 3259 ng·h/mL and the “Cmax” value stood at 681 ng/mL.
With `CCn1c(-c2cc(C#CCN3CCCOCC3)cnc2C(C)C)c2c3cc(ccc31)-c1csc(n1)C[C@H](NC(=O)[C@H]1[C@H](C)[C@@H]1C)C(=O)N1CCC[C@H](N1)C(=O)OCC(C)(C)C2` (atropisomer, axis not shown; (Sa)) [Compound Z811-2, (1r,2R,3S)—N-((6^3S,4S,Z)—(Sa)-1-(5-(3-(1,4-oxazepan-4-yl)prop-1-yn-1-yl)-2-isopropylpyridin-3-yl)-1^1-ethyl-10,10-dimethyl-5,7-dioxo-6^1,6^2,6^3,6^4,6^5,6^6-hexahydro-1^1H-8-oxa-2(4,2)-thiazola-1(5,3)-indola-6(1,3)-pyridazinacycloundecaphane-4-yl)-2,3-dimethylcyclopropane-1-carboxamide], the 50% inhibitory concentration (IC50) in series [1] was 0.21 nM. Besides, the “CL” value in series [2] (dose 1 mg/kg) was 1.14 mL/min/kg. Further, in series [2], the “AUC” value worked out at 29002 ng·h/mL and the highest concentration (Cmax) stood at 4303 ng/mL.
With `CCn1c(-c2cc(C#CCN3CCCOCC3)cnc2[C@H](C)OC)c2c3cc(ccc31)-c1csc(n1)C[C@H](NC(=O)[C@H]1[C@H](C)[C@@H]1C)C(=O)N1CCC[C@H](N1)C(=O)OCC(C)(C)C2` (single isomer, unassigned) [Compound Z504], in series [1] (Homo sapiens, NCI-H441, 3 h), the IC50 is 0.55 nM. The clearance in series [2] (setting [6]) was determined as 4 mL/min/kg. In series [2] (setting [4]), the AUC was determined as 5320 ng·h/mL. In series [2] (setting [5]), the Cmax was found to be 605 ng/mL.
The matching figures for `CCn1c(-c2cc(C#CCN3CCCOCC3)cnc2[C@H](C)OC)c2c3cc(ccc31)-c1csc(n1)C[C@H](NC(=O)[C@H]1C[C@@H]1C)C(=O)N1CCC[C@H](N1)C(=O)OCC(C)(C)C2` (single isomer, unassigned) [Compound Z604]: 0.26 nM, 2.46 mL/min/kg, 14600 ng·h/mL and 3010 ng/mL.
Regarding `CCn1c(-c2cc(C#CCN3CCCOCC3)cnc2[C@H](C)OC)c2c3cc(ccc31)-c1csc(n1)C[C@H](NC(=O)CC1CC1)C(=O)N1CCC[C@H](N1)C(=O)OCC(C)(C)C2` (atropisomer, axis not shown; (Ra)) [Compound Z915], in series [1] (Homo sapiens, NCI-H441, 3 h), the IC50 was 0.68 nM. The same molecule had a clearance in series [2] (setting [3]) of 6 mL/min/kg. Besides, in series [2] (setting [4]), the AUC came to 6840 ng·h/mL. Further, the Cmax in series [2] (setting [5]) came out at 1730 ng/mL.
`CCn1c(-c2cc(C#CCN3CCCOCC3)cnc2[C@H](C)OC)c2c3cc(ccc31)-c1csc(n1)C[C@H](NC(=O)CC(C)C)C(=O)N1CCC[C@H](N1)C(=O)OCC(C)(C)C2` (single isomer, unassigned) [Compound Z803]: the IC50 in series [1] (Homo sapiens, NCI-H441, 3 h) amounted to 1.14 nM. The molecule further gave a clearance in series [2] (setting [6]) of 1.83 mL/min/kg. In series [2] (setting [4]), the exposure (AUC) was 8400 ng·h/mL. The maximum concentration (Cmax) in series [2] (setting [5]) was determined as 1110 ng/mL.
On to `CCn1c(-c2cc(C#CCN(C)CCOC)cnc2[C@H](C)OC)c2c3cc(ccc31)-c1csc(n1)C[C@H](NC(=O)[C@H]1[C@H](C)[C@@H]1C)C(=O)N1CCC[C@H](N1)C(=O)OCC(C)(C)C2` (atropisomer, axis not shown; (Ra)) [Compound Z788], for which, in series [1], the IC50 was 0.19 nM. The “CL” value in series [2] (dose 1 mg/kg) is 3.58 mL/min/kg. In series [2], the “AUC” value came out at 8529 ng·h/mL and the “Cmax” value was found to be 2110 ng/mL.
With `CCn1c(-c2cc(C#CCN3CCN(C)C(=O)C3)cnc2[C@H](C)OC)c2c3cc(ccc31)-c1csc(n1)C[C@H](NC(=O)[C@H]1[C@H](C)[C@@H]1C)C(=O)N1CCC[C@H](N1)C(=O)OCC(C)(C)C2` (atropisomer, axis not shown; (Ra)) [Compound Z793], the IC50 in series [1] (Homo sapiens, NCI-H441, 3 h) was determined as 0.09 nM. In addition, in series [2] (setting [6]), the clearance came out at 3.16 mL/min/kg. For the same molecule, the AUC in series [2] (setting [4]) came to 5920 ng·h/mL. Moreover, the Cmax in series [2] (setting [5]) was 2040 ng/mL.
With `CCn1c(-c2cc(N3CCN4CC5(CC5)OC[C@@H]4C3)cnc2[C@H](C)OC)c2c3cc(ccc31)-c1csc(n1)C[C@H](NC(=O)[C@H]1[C@H](C)[C@@H]1C)C(=O)N1CCC[C@H](N1)C(=O)OCC1(CC1)C2` (atropisomer, axis not shown; (Ra)) [Compound Z13], the IC50 in series [1] (Homo sapiens, NCI-H441, 3 h) is 0.88 nM.
Turning to `CCn1c(-c2cc(C#CCN3CCCN(C)CC3)cnc2[C@H](C)OC)c2c3cc(ccc31)-c1csc(n1)C[C@H](NC(=O)[C@H]1[C@H](C)[C@@H]1C)C(=O)N1CCC[C@H](N1)C(=O)OCC(C)(C)C2` (atropisomer, axis not shown; (Ra)) [Compound Z802, (1r,2R,3S)—N-((6^3S,4S,Z)-1^2-(5-(3-(4-methyl-1,4-diaza-1-yl)prop-1-yn-1-yl)-(Ra)-2-((S)-1-methoxyethyl)pyridin-3-yl)-1^1-ethyl-10,10-dimethyl-5,7-dioxo-6^1,6^2,6^3,6^4,6^5,6^6-hexahydro-1^1H-8-oxa-2(4,2)-thiazola-1(5,3)-indola-6(1,3)-pyridazinacycloundecaphane-4-yl)-2,3-dimethylcyclopropane-1-carboxamide], in series [1] (Homo sapiens, NCI-H441, 3 h), the IC50 came to 0.4 nM.
Same read-out and setting: the same measure for `CCn1c(-c2cc(N3CCN(CCS(C)(=O)=O)CC3)cnc2[C@H](C)OC)c2c3cc(ccc31)-c1csc(n1)C[C@H](NC(=O)[C@H]1[C@H](C)[C@@H]1C)C(=O)N1CCC[C@H](N1)C(=O)OCC1(CC1)C2` (single isomer, unassigned) [Compound Z367]: 2.1 nM; for `CCO[C@@H](C)c1ncc(N2CCN(CCS(C)(=O)=O)CC2)cc1-c1c2c3cc(ccc3n1CC)-c1csc(n1)C[C@H](NC(=O)[C@H]1[C@H](C)[C@@H]1C)C(=O)N1CCC[C@H](N1)C(=O)OCC1(CC1)C2` (single isomer, unassigned) [Compound Z378-1]: 4.64 nM.
